Measured values: patent US7964624B1, “Inhibitors of serine proteases” (priority 2005, dated 2011)

Biological target: T1, HCV NS3 protease domain (Hepatitis C virus genotype 1b, UniProt Q9WMX2)
T1 construct: The first 181 amino acids of NS3 (residues 1027-1207 of the viral polyprotein); hexa-histidine (C); made in house; host or cells: E. coli BL21/DE3 pLysS
Experiment: biochemical
Conditions: Enzyme Assay 1 (HCV NS3 Protease Domain Peptide Cleavage Assay) activity, apparent Ki class

T1 sequence (Q9WMX2 1027-1207, other chains not shown): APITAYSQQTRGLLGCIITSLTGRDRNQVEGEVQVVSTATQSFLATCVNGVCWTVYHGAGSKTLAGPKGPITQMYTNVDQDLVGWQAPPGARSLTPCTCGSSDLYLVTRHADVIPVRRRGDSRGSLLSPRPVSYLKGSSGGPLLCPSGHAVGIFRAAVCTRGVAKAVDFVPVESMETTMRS

Compound	Ki [nM]
CCC[C@H](NC(=O)[C@@H]1C[C@]2(CC(c3cccc(Cl)c3)=NO2)CN1C(=O)[C@@H](NC(=O)CC1CCCCC1)C(C)(C)C)C(=O)C(=O)NCC [Compound 140]	100 to 500
C=C[C@@H]1C[C@]1(NC(=O)[C@@H]1C[C@]2(CC(c3cccc(Cl)c3)=NO2)CN1C(=O)[C@@H](NC(=O)CC1CCCCC1)C(C)(C)C)C(=O)O [Compound 144]	> 500
CCC[C@H](NC(=O)[C@@H]1C[C@]2(CC(C(=O)NCC)=NO2)CN1C(=O)[C@@H](NC(=O)O[C@H]1CCOC1)C(C)(C)C)C(=O)C(=O)NC1CC1 [Compound 146]	> 500
CCC[C@H](NC(=O)[C@@H]1C[C@]2(CC(c3ccc4c(c3)CCC(C)(C)O4)=NO2)CN1C(=O)[C@@H](NC(=O)O[C@H]1CCOC1)C(C)(C)C)C(=O)C(=O)NC1CC1 [Compound 150]	100 to 500
C=CCOC(=O)N[C@H](C(=O)N1C[C@@]2(CC(c3ccccc3)=NO2)C[C@H]1C(=O)N[C@@H](CCC)C(=O)C(=O)NC1CC1)C(C)(C)C [Compound 151]	100 to 500
CCC[C@H](NC(=O)[C@@H]1C[C@]2(CC(c3cccc(Cl)c3)=NO2)CN1C(=O)[C@@H](NC(=O)OCC1CCOC1)C(C)(C)C)C(=O)C(=O)NC1CC1 (stereo partly shown) [Compound 152]	100 to 500
C=CCOC(=O)N[C@H](C(=O)N1C[C@@]2(CC(c3ccc(F)cc3)=NO2)C[C@H]1C(=O)N[C@@H](CCC)C(=O)C(=O)NC1CC1)C(C)(C)C [Compound 154]	100 to 500
CCC[C@H](NC(=O)[C@@H]1C[C@]2(CC(c3cccc(Cl)c3)=NO2)CN1C(=O)[C@@H](NC(=O)Cc1cc(F)ccc1C)C(C)(C)C)C(=O)C(=O)NC1CC1 [Compound 155]	> 500
CCC[C@H](NC(=O)[C@@H]1C[C@]2(CC(c3cccc(Cl)c3)=NO2)CN1C(=O)[C@@H](NC(=O)NCC(C)C)C(C)(C)C)C(=O)C(=O)NC1CC1 [Compound 156]	< 100
CCC[C@H](NC(=O)[C@@H]1C[C@]2(CC(c3cccc(Cl)c3)=NO2)CN1C(=O)c1cc2cc(OC)c(OC)cc2[nH]1)C(=O)C(=O)NC1CC1 [Compound 157]	> 500
CCC[C@H](NC(=O)[C@@H]1C[C@]2(CC(c3cccc(Cl)c3)=NO2)CN1C(=O)[C@@H](NC(=O)OCCc1ccsc1)C(C)(C)C)C(=O)C(=O)NC1CC1 [Compound 159]	100 to 500
CCC[C@H](NC(=O)[C@@H]1C[C@]2(CC(c3cccc(Cl)c3)=NO2)CN1C(=O)[C@@H](NC(=O)c1cc(NC(C)=O)sc1C(C)=O)C(C)(C)C)C(=O)C(=O)NC1CC1 [Compound 161]	> 500
CCC[C@H](NC(=O)[C@@H]1C[C@]2(CC(c3ccccc3Cl)=NO2)CN1C(=O)[C@@H](NC(=O)OCc1ccccc1)C(C)(C)C)C(=O)C(=O)NC1CC1 [Compound 164]	> 500
CCC[C@H](NC(=O)[C@@H]1C[C@]2(CC(c3ccc(OC)cc3OC)=NO2)CN1C(=O)[C@@H](NC(=O)CC1CCCCC1)C(C)(C)C)C(=O)C(=O)NC1CC1 [Compound 166]	100 to 500
CCC[C@H](NC(=O)[C@@H]1C[C@]2(CC(c3cccc(Cl)c3)=NO2)CN1C(=O)[C@@H](NC(=O)OCc1cccnc1C)C(C)(C)C)C(=O)C(=O)NC1CC1 [Compound 167]	100 to 500
CCC[C@H](NC(=O)[C@@H]1C[C@]2(CC(c3cccc(Cl)c3)=NO2)CN1C(=O)[C@@H](NC(=O)OCc1cccc(C)c1)C(C)(C)C)C(=O)C(=O)NC1CC1 [Compound 174]	100 to 500
CCC[C@H](NC(=O)[C@@H]1C[C@]2(CC(c3ccc(Br)o3)=NO2)CN1C(=O)[C@@H](NC(=O)CC1CCCCC1)C(C)(C)C)C(=O)C(=O)NC1CC1 [Compound 179]	100 to 500
CCC[C@H](NC(=O)[C@@H]1C[C@]2(CC(C)=NO2)CN1C(=O)[C@@H](NC(C)=O)C(C)(C)C)C(=O)C(=O)NC1CC1 [Compound 180]	> 500
CCC[C@H](NC(=O)[C@@H]1C[C@]2(CC(c3cccc(Cl)c3)=NO2)CN1C(=O)[C@@H](NC(=O)[C@H](OC)c1ccccc1)C(C)(C)C)C(=O)C(=O)NC1CC1 [Compound 187]	> 500
CCC[C@H](NC(=O)[C@@H]1C[C@]2(CC(c3cccc(Cl)c3)=NO2)CN1C(=O)[C@@H](NC(=O)CCc1cccc(OC)c1)C(C)(C)C)C(=O)C(=O)NC1CC1 [Compound 189]	> 500
CCC[C@H](NC(=O)[C@@H]1C[C@]2(CC(c3cc(C)c(OC)c(C)c3)=NO2)CN1C(=O)[C@@H](NC(=O)O[C@H]1CCOC1)C(C)(C)C)C(=O)C(=O)NC1CC1 [Compound 191]	> 500
CCC[C@H](NC(=O)[C@@H]1C[C@]2(CC(c3cccc(Cl)c3)=NO2)CN1C(=O)[C@@H](NC(=O)OC(C)C)C(C)(C)C)C(=O)C(=O)NC1CC1 [Compound 193]	100 to 500
CCCC(NC(=O)[C@@H]1C[C@]2(CC(c3ccc(OC)c(OC)c3)=NO2)CN1C(=O)[C@@H](NC(=O)O[C@H]1CCOC1)C(C)(C)C)C(=O)C(=O)NC1CC1 (stereo partly shown) [Compound 196]	100 to 500
CCC[C@H](NC(=O)[C@@H]1C[C@]2(CC(c3cccc(Cl)c3)=NO2)CN1C(=O)[C@@H](NC(=O)Oc1ccc2c(c1)OCO2)C(C)(C)C)C(=O)C(=O)NC1CC1 [Compound 197]	100 to 500
CCC[C@H](NC(=O)[C@@H]1C[C@]2(CC(c3c4ccccc4cc4ccccc34)=NO2)CN1C(=O)[C@@H](NC(=O)OCc1ccccc1)C(C)(C)C)C(=O)C(=O)NC1CC1 [Compound 199]	> 500

Compound	Ki [nM]
CCC[C@H](NC(=O)[C@@H]1C[C@]2(CC(c3ccccc3)=NO2)CN1C(=O)[C@@H](NC(=O)O[C@H]1CCOC1)C(C)(C)C)C(=O)C(=O)NC1CC1 [Compound 202]	> 500
CCC[C@H](NC(=O)[C@@H]1C[C@]2(CC(c3cccc(Cl)c3)=NO2)CN1C(=O)[C@@H](NC(=O)OCc1cc(F)cc(F)c1)C(C)(C)C)C(=O)C(=O)NC1CC1 [Compound 203]	100 to 500
CCC[C@H](NC(=O)[C@@H]1C[C@]2(CC(c3cccc(Cl)c3)=NO2)CN1C(=O)CNC(=O)NCc1ccccc1)C(=O)C(=O)NC1CC1 [Compound 205]	> 500
CCC[C@H](NC(=O)[C@@H]1C[C@]2(CC(c3cccc(Cl)c3)=NO2)CN1C(=O)CNC(=O)OCC)C(=O)C(=O)NC1CC1 [Compound 207]	> 500
CCC[C@H](NC(=O)[C@@H]1C[C@]2(CC(c3cccc(Cl)c3)=NO2)CN1C(=O)[C@@H](NC(=O)OCc1cccc(F)c1)C(C)(C)C)C(=O)C(=O)NC1CC1 [Compound 209]	100 to 500
CCC[C@H](NC(=O)[C@@H]1C[C@]2(CC(c3cc(Cl)c(OC)cc3OC)=NO2)CN1C(=O)OCc1ccccc1Cl)C(=O)C(=O)NC1CC1 [Compound 210]	> 500
CCC[C@H](NC(=O)[C@@H]1C[C@]2(CC(c3cccc(Cl)c3)=NO2)CN1C(=O)[C@@H](Nc1cccc(OC)c1)C(C)(C)C)C(=O)C(=O)NC1CC1 [Compound 214]	> 500
CCC[C@H](NC(=O)[C@@H]1C[C@]2(CC(c3cc(F)c(F)c(F)c3)=NO2)CN1C(=O)[C@@H](NC(=O)O[C@H]1CCOC1)C(C)(C)C)C(=O)C(=O)NC1CC1 [Compound 215]	100 to 500
CCC[C@H](NC(=O)[C@@H]1C[C@]2(CC(c3cccc(Cl)c3)=NO2)CN1C(=O)[C@@H](NC(=O)C1CC(=O)N(Cc2cccs2)C1)C(C)(C)C)C(=O)C(=O)NC1CC1 (stereo partly shown) [Compound 216]	> 500
CC(C)(C)[C@H](NC(=O)CC1CCCCC1)C(=O)N1C[C@@]2(CC(c3cccc(Cl)c3)=NO2)C[C@H]1C(=O)NC(CC1CCC1)C(=O)C(N)=O (stereo partly shown) [Compound 217]	< 100
CCC[C@H](NC(=O)[C@@H]1C[C@]2(CC(c3cc(C)c(OC)c(C)c3)=NO2)CN1C(=O)[C@@H](NC(=O)O[C@H]1CCOC1)C(C)(C)C)C(=O)C(=O)NC1CC1 [Compound 224]	100 to 500
CCC[C@H](NC(=O)[C@@H]1C[C@]2(CC(c3cccc(Cl)c3)=NO2)CN1C(=O)[C@@H](NC(=O)CCC1CCCCC1)C(C)(C)C)C(=O)C(=O)NC1CC1 [Compound 226]	100 to 500
CCC[C@H](NC(=O)[C@@H]1C[C@]2(CC(c3ccccc3)=NO2)CN1C(=O)[C@@H](NC(C)=O)C(C)(C)C)C(=O)C(=O)NC1CC1 [Compound 228]	> 500
CCC[C@H](NC(=O)[C@@H]1C[C@]2(CC(CCC(=O)OC)=NO2)CN1C(=O)[C@@H](NC(=O)O[C@H]1CCOC1)C(C)(C)C)C(=O)C(=O)NC1CC1 [Compound 229]	> 500
CCC[C@H](NC(=O)[C@@H]1C[C@]2(CC(c3c(C)oc4ccccc34)=NO2)CN1C(=O)[C@@H](NC(=O)CC1CCCCC1)C(C)(C)C)C(=O)C(=O)NC1CC1 [Compound 230]	100 to 500
CNC(=O)C(=O)C(CC1CCC1)NC(=O)[C@@H]1C[C@]2(CC(c3cccc(Cl)c3)=NO2)CN1C(=O)[C@@H](NC(=O)CC1CCCCC1)C(C)(C)C (stereo partly shown) [Compound 231]	100 to 500
CCC[C@H](NC(=O)[C@@H]1C[C@]2(CC(c3cc(F)cc(Cl)c3)=NO2)CN1C(=O)[C@@H](NC(=O)CC1CCOCC1)C(C)(C)C)C(=O)C(=O)NC1CC1 [Compound 234]	100 to 500
CCCC1=NO[C@]2(C1)C[C@@H](C(=O)N[C@@H](CCC)C(=O)C(=O)NC1CC1)N(C(=O)[C@@H](NC(=O)OCc1ccccc1)C(C)(C)C)C2 [Compound 235]	> 500
CCC[C@H](NC(=O)[C@@H]1C[C@]2(CC(c3cccc(Cl)c3)=NO2)CN1C(=O)[C@@H](NC(=O)CCn1ccnc1C)C(C)(C)C)C(=O)C(=O)NC1CC1 [Compound 237]	100 to 500
CCC[C@H](NC(=O)[C@@H]1C[C@]2(CC(c3cccc(Br)c3)=NO2)CN1C(=O)[C@@H](NC(=O)OCc1ccccc1)C(C)(C)C)C(=O)C(=O)NC1CC1 [Compound 239]	100 to 500
CCC[C@H](NC(=O)[C@@H]1C[C@]2(CC(c3ccc(C(F)(F)F)cc3)=NO2)CN1C(=O)O[C@H]1CCOC1)C(=O)C(=O)NC1CC1 [Compound 240]	> 500
CCCC1=NO[C@]2(C1)C[C@@H](C(=O)N[C@@H](CCC)C(=O)C(=O)NC1CC1)N(C(=O)[C@@H](NC(=O)OC1CCOC1)C(C)(C)C)C2 (stereo partly shown) [Compound 243]	> 500
CCC[C@H](NC(=O)[C@@H]1C[C@]2(CC(c3cccc(OC(F)(F)F)c3)=NO2)CN1C(=O)[C@@H](NC(=O)O[C@H]1CCOC1)C(C)(C)C)C(=O)C(=O)NC1CC1 [Compound 244]	100 to 500
CCC[C@H](NC(=O)[C@@H]1C[C@]2(CC(c3cccc(Cl)c3)=NO2)CN1C(=O)[C@@H](NC(=O)CC1=CCCCC1)C(C)(C)C)C(=O)C(=O)NC1CC1 [Compound 245]	100 to 500
